Data set [1] in a line: 4-week toxicity study in rats. The format is in vivo. How it is done:
(§1) Rapamycin or derivatives thereof are well tolerated at dosages required for use in accordance with the present invention. For example, the NTEL for Compound A in a 4-week toxicity study is 0.5 mg/kg/day in rats and 1.5 mg/kg/day in monkeys.

The nature of data set [2]: 4-week toxicity study in monkeys. It counts as in vivo. How it is done: as §1

Turning to `CO[C@H]1C[C@@H]2CC[C@@H](C)[C@@](O)(O2)C(=O)C(=O)N2CCCC[C@H]2C(=O)O[C@H]([C@H](C)C[C@@H]2CC[C@@H](OCCO)[C@H](OC)C2)CC(=O)[C@H](C)/C=C(\C)[C@@H](O)[C@@H](OC)C(=O)[C@H](C)C[C@H](C)/C=C/C=C/C=C/1C` [Compound A, 40-0-(2-hydroxyethyl)-rapamycin], the NTEL is 0.5 mg/kg/day in data set [1] and 1.5 mg/kg/day in data set [2].

For the origin of these results see patent publication US20080280939A1, “Combination of Organic Compounds” (priority 2004, published 2008).
